Data as given in ChEMBL document CHEMBL1137169, “P4 cap modified tetrapeptidyl alpha-ketoamides as potent HCV NS3 protease inhibitors” (Bioorg Med Chem Lett, 2004).

Experiments:
NS3 = NS3 (Hepatitis C virus, UniProt A3EZJ3); assay: Inhibitory potency against HCV NS3 protease; set-up: species or system Hepacivirus hominis
Huh-7 = assay: Cytotoxic concentration against Huh-7 liver cell line; type: functional; conditions: Homo sapiens
Cell line = assay: inhibitory concentration in luciferase based replicon assay; type: functional; conditions: Homo sapiens
[1] = molecular target: T1, Neutrophil elastase (Homo sapiens) (UniProt P08246); assay: Selectivity for human neutrophil elastase
T1 sequence (whole entry): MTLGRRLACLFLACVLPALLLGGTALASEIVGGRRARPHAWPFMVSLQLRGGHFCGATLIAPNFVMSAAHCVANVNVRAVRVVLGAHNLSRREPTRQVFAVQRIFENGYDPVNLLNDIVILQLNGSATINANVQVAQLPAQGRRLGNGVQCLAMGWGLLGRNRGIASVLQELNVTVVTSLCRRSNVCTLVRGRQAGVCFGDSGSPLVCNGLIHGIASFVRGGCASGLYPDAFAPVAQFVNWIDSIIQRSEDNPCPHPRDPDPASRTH

Chain of NS3 (A3EZJ3 whole entry): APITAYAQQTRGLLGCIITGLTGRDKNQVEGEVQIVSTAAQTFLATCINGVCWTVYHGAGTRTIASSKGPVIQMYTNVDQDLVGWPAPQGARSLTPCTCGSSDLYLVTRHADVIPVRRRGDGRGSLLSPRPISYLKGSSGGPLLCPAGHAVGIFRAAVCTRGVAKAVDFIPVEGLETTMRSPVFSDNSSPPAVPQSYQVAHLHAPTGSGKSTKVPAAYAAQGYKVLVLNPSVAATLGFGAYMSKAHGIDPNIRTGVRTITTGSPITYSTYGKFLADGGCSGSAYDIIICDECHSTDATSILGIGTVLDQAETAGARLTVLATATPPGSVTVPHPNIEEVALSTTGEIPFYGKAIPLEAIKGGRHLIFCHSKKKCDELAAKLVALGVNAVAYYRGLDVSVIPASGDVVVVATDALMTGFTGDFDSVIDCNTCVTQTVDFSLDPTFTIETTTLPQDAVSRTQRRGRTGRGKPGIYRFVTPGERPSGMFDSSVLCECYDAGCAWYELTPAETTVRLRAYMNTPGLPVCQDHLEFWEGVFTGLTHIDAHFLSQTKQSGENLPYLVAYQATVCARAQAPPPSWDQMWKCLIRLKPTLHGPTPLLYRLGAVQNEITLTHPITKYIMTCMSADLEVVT

Row | Structure (SMILES) | Ki (NS3) | IC50 (Cell line) | Selectivity [1] | CC50 (Huh-7)
1 | CCCC(NC(=O)[C@@H]1CC(OC(=O)N2CCc3ccccc3C2)CN1C(=O)[C@@H](NC(=O)[C@@H](NC(=O)CCCCC(=O)O)C(C)C)C(C)C)C(=O)C(=O)NC1CC1 (some centres undefined) | 65 nM | > 50000 nM | – | > 50000 nM
2 | CCC[C@H](NC(=O)[C@@H]1C2CCCC2CN1C(=O)[C@@H](NC(=O)[C@@H](NC(=O)Cc1nn[nH]n1)C(C)C)C(C)(C)C)C(=O)C(=O)NC1CC1 (some centres undefined) | 808 nM | – | – | –
3 | CCCC(NC(=O)[C@@H]1CC(OC(=O)N2CCc3ccccc3C2)CN1C(=O)[C@@H](NC(=O)[C@@H](NC(=O)CCCCC(=O)NC)C(C)C)C(C)C)C(=O)C(=O)NC1CC1 (some centres undefined) | 193 nM | – | 4 | > 10000 nM
4 | CCCC(NC(=O)[C@@H]1CC(OC(=O)N2CCc3ccccc3C2)CN1C(=O)[C@@H](NC(=O)[C@@H](NC(=O)CCCCC(=O)OC)C(C)C)C(C)C)C(=O)C(=O)NC1CC1 (some centres undefined) | 271 nM | – | – | –
5 | CCC[C@H](NC(=O)[C@@H]1C2CCCC2CN1C(=O)[C@@H](NC(=O)[C@@H](NC(=O)Cc1nn[nH]n1)[C@@H](C)CC)C(C)(C)C)C(=O)C(=O)NC1CC1 (some centres undefined) | 3110 nM | > 50000 nM | – | > 50000 nM
6 | CCCC(NC(=O)[C@@H]1C2CCCC2CN1C(=O)[C@@H](NC(=O)[C@@H](NC(=O)Cc1nn[nH]n1)C1CCCCC1)C(C)(C)C)C(=O)C(=O)NC1CC1 (some centres undefined) | 30 nM | > 50000 nM | – | > 50000 nM
7 | CCC(C=O)NC(=O)[C@@H]1CC(OC(=O)c2ccc3ccccc3c2)CN1C(=O)[C@@H](NC(=O)[C@@H](NC(=O)CCCCC(=O)O)C(C)C)C(C)C (some centres undefined) | 110 nM | – | – | –

Second part, led by results:

Row | Ki (NS3) | IC50 (Cell line) | Selectivity [1] | Structure (SMILES) | CC50 (Huh-7)
8 | 27 nM | – | – | CCCC(NC(=O)[C@@H]1C2CCCC2CN1C(=O)[C@@H](NC(=O)[C@@H](NC(=O)CCCCc1nnn[nH]1)C(C)C)C(C)C)C(=O)C(=O)N[C@@H](C)c1ccccc1 (stereo in doubt; 13) | –
9 | 123 nM | 11600 nM | – | CCC[C@H](NC(=O)[C@@H]1C2CCCC2CN1C(=O)[C@@H](NC(=O)[C@@H](NC(=O)c1cnccn1)C(C)C)C(C)C)C(=O)C(=O)NC1CC1 (some centres undefined) | > 50000 nM
10 | 248 nM | > 50000 nM | – | CCCC(NC(=O)[C@@H]1C2CCCC2CN1C(=O)[C@@H](NC(=O)[C@@H](NC(=O)CCCCc1nnn[nH]1)C(C)C)C(C)C)C(=O)C(=O)NC(C)CC (some centres undefined) | > 50000 nM
11 | 31 nM | > 50000 nM | – | CCCC(NC(=O)[C@@H]1C2CCCC2CN1C(=O)[C@@H](NC(=O)[C@@H](NC(=O)CCCCc1nnn[nH]1)C(C)C)C(C)C)C(=O)C(=O)N[C@@H](C)c1ccccc1 (stereo in doubt; 12) | > 50000 nM
12 | 112 nM | – | – | CCCC(NC(=O)[C@@H]1C2CCCC2CN1C(=O)[C@@H](NC(=O)[C@@H](NC(=O)CCCCc1nnn[nH]1)C(C)C)C(C)C)C(=O)C(=O)N[C@@H](C)c1ccncc1 (some centres undefined) | –
13 | 170 nM | – | – | CCC[C@H](NC(=O)[C@@H]1C2CCCC2CN1C(=O)[C@@H](NC(=O)[C@@H](NC(=O)CCCCc1nn[nH]n1)C(C)C)C(C)C)C(=O)C(=O)NC1CC1 (some centres undefined) | –
14 | – | > 50000 nM | 7 | CCC[C@H](NC(=O)[C@@H]1C2CCCC2CN1C(=O)[C@@H](NC(=O)[C@@H](NC(=O)CCCCc1nnn[nH]1)C(C)C)C(C)C)C(=O)C(=O)NC1CC1 (some centres undefined) | > 50000 nM
15 | 22 nM | – | 1180 | CCCC(NC(=O)[C@@H]1C2CCCC2CN1C(=O)[C@@H](NC(=O)[C@@H](NC(=O)CCCCc1nnn[nH]1)C(C)C)C(C)C)C(=O)C(=O)Nc1ccccc1 (some centres undefined) | > 10000 nM
16 | 82 nM | – | – | CCC[C@H](NC(=O)[C@@H]1C2CCCC2CN1C(=O)[C@@H](NC(=O)[C@@H](NC(=O)CCCCc1nn[nH]n1)C(C)C)C(C)C)C(=O)C(=O)NC(=O)CN (some centres undefined) | –
